Measured values taken from patent publication US7332501B2, “Indol-3-yl-carbonyl-spiro-piperidine derivatives as V1a receptor antagonists” (Hoffmann-La Roche Inc., priority 2005, dated 2008).

Each molecule was assayed against T1, human V1a receptor (Homo sapiens, UniProt P37288) (assay: human V1a receptor binding (3H-Vasopressin SPA, HEK293 membranes)). Conditions: displacement of 4 nM 3H-Vasopressin, membranes of HEK293 cells transiently transfected with human V1a receptor; Ki from IC50 by Cheng-Prussoff.
T1 construct: expressed in transfected cells; host or cells: HEK293 cells, transiently transfected; cell membranes
T1 sequence (P37288 whole entry): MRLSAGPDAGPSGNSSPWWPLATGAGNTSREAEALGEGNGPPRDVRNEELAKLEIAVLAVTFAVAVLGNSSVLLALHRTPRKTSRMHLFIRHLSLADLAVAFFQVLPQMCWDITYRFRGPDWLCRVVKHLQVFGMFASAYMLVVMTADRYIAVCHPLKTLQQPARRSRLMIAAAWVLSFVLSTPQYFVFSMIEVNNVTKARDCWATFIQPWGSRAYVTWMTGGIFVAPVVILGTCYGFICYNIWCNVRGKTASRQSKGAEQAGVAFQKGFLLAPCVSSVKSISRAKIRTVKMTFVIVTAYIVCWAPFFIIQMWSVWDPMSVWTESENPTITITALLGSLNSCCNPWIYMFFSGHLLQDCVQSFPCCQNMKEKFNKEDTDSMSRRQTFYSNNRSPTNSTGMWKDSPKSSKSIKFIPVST
In short: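 Ki derived by Cheng-Prusoff from IC50 curves normalised to specific binding. Serially diluted compounds (in 2% DMSO) competed with 3H-vasopressin (4 nM working solution) for 1 h at room temperature on SPA beads bearing membranes of transiently transfected HEK293 cells; unlabelled vasopressin defined non-specific counts.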

Ki | SMILES
3.7 nM | O=C(c1cn(CC2CO2)c2cc(Cl)ccc12)N1CCC2(CC1)OCc1ccccc12 (stereo not drawn) [Example 258, 1′-{[6-Chloro-1-(oxiran-2-ylmethyl)-1H-indol-3-yl]carbonyl}-3H-spiro[2-benzofuran-1,4′-piperidine]]
1.3 nM | CCN(CC)C(=O)Cn1cc(C(=O)N2CCC3(CC2)OC(=O)c2ccccc23)c2ccc(Cl)cc21 [Example 107, 2-{6-Chloro-3-[(3-oxo-1′H,3H-spiro[2-benzofuran-1,4′-piperidin]-1′-yl)carbonyl]-1H-indol-1-yl}-N,N-diethylacetamide]
2.1 nM | Cc1c(C(=O)N2CCC3(CC2)OCc2ccccc23)c2ccccc2n1Cc1cc(F)cc(F)c1 [Example 52]
2.2 nM | Cc1nc(Cn2cc(C(=O)N3CCC4(CC3)OCc3ccccc34)c3ccc(Cl)cc32)c(C)o1 [Example 242]
2.5 nM | COc1ccccc1Cn1c(C)c(C(=O)N2CCC3(CC2)OCc2ccccc23)c2ccccc21 [Example 54, 1′-{[1-(2-methoxybenzyl)-2-methyl-1H-indol-3-yl]carbonyl}-3H-spiro[2-benzofuran-1,4′-piperidine]]
2.3 nM | O=C1OC2(CCN(C(=O)c3cn(Cc4cnccn4)c4cc(Cl)ccc34)CC2)c2ccc(F)cc21 [Example 173, 1′-{[6-Chloro-1-(pyrazin-2-ylmethyl)-1H-indol-3-yl]carbonyl}-5-fluoro-3H-spiro[2-benzofuran-1,4′-piperidin]-3-one]
25.1 nM | O=C(c1cn(Cc2cccnc2)c2cc(Cl)ccc12)N1CCC2(CC1)CNc1ccccc12 [Example 102, 1′-{[6-Chloro-1-(pyridin-3-ylmethyl)-1H-indol-3-yl]carbonyl}-1,2-dihydrospiro[indole-3,4′-piperidine]]
6.8 nM | Cc1c(C(=O)N2CCC3(C=Cc4ccccc43)CC2)c2ccccc2n1Cc1ccccc1 [Example 1, 1′-[(1-benzyl-2-methyl-1H-indol-3-yl)carbonyl]spiro[indene-1,4′-piperidine]]
1.7 nM | N#CCn1cc(C(=O)N2CCC3(CC2)OCc2ccccc23)c2ccc(Cl)cc21 [Example 76, [6-chloro-3-(1′H,3H-spiro[2-benzofuran-1,4′-piperidin]-1′-ylcarbonyl)-1H-indol-1-yl]acetonitrile]
4 nM | Cc1nc(Cn2cc(C(=O)N3CCC4(CC3)OC(=O)c3cc(F)ccc34)c3ccc(Cl)cc32)c(C2CC2)o1 [Example 182, 1′-({6-Chloro-1-[(5-cyclopropyl-2-methyl-1,3-oxazol-4-yl)methyl]-1H-indol-3-yl}carbonyl)-5-fluoro-3H-spiro[2-benzofuran-1,4′-piperidin]-3-one]
15.3 nM | Cc1ncc(Cn2cc(C(=O)N3CCC4(CC3)OC(=O)c3cc(F)ccc34)c3ccc(Cl)cc32)c(N)n1 [Example 163, 1′-({1-[(4-Amino-2-methylpyrimidin-5-yl)methyl]-6-chloro-1H-indol-3-yl}carbonyl)-5-fluoro-3H-spiro[2-benzofuran-1,4′-piperidin]-3-one]

SMILES | Ki
Cc1c(C(=O)N2CCC3(CCc4ccccc43)CC2)c2ccccc2n1Cc1ccccc1 [Example 2, 1′-[(1-benzyl-2-methyl-1H-indol-3-yl)carbonyl]-2,3-dihydrospiro[indene-1,4′-piperidine]] | 16.2 nM
Cc1c(C(=O)N2CCC3(CC2)OC(=O)c2cccc(Cl)c23)c2ccccc2n1Cc1ccccc1 [Example 14, 1′-[(1-benzyl-2-methyl-1H-indol-3-yl)carbonyl]-7-chloro-3H-spiro[2-benzofuran-1,4′-piperidin]-3-one] | 11.2 nM
O=C(c1cn(CCN2CCOCC2)c2cc(Cl)ccc12)N1CCC2(CC1)OCc1ccccc12 [Example 256, 1′-{[6-Chloro-1-(2-morpholin-4-ylethyl)-1H-indol-3-yl]carbonyl}-3H-spiro[2-benzofuran-1,4′-piperidine]] | 2.4 nM
O=C(Cn1cc(C(=O)N2CCC3(CC2)OCc2ccccc23)c2ccc(Cl)cc21)c1ccccc1F [Example 224, 2-[6-Chloro-3-(1′H,3H-spiro[2-benzofuran-1,4′-piperidin]-1′-ylcarbonyl)-1H-indol-1-yl]-1-(2-fluorophenyl)ethanone] | 1.3 nM
